Measurements taken from US20250145628A1, “PYRAZOLOPYRIMIDINES, COMPOSITIONS COMPRISING THEM AND USES THEREOF” (Novo Nordisk A/S, priority 2022, published 2025).

Experiments:
human CB1 receptor [1] = biological target: T1, human CB1 receptor (Homo sapiens, UniProt P21554); experiment: bioSensAll GAPL-Gi2 BRET biosensor assay (antagonism of CP-55,940); assay type: cell-based; conditions: HEK293 cells transfected with hCB1 and GAPL-Gi2 biosensor, EC75 of CP-55,940 (0.1 nM), overnight incubation, read-out: CB1 wt Gi2 IC50
T1 construct: expressed in transfected cells; host or cells: HEK293
T1 sequence (P21554 whole entry): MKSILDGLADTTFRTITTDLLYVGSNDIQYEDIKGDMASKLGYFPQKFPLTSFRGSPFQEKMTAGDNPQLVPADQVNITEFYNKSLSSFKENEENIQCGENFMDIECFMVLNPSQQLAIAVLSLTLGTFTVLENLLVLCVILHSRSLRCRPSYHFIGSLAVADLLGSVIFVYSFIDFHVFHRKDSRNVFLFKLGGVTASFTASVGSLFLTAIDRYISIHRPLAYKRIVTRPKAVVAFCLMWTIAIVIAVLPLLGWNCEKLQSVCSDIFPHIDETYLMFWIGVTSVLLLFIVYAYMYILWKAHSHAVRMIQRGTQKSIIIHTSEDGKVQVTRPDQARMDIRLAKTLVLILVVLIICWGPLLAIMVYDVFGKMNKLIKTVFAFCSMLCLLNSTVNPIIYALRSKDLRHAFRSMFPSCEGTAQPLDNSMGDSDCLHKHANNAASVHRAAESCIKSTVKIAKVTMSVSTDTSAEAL
Summary of the method: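 HEK293 cells transiently co-transfected with hCB1 and GAPL-Gi2 BRET biosensor; ~48 h later, in HBSS, 12 compound doses ([…]) added 3–5 min before CP-55,940 at EC75 (0.1 nM). BRET ratio 515/400 nm with coelenterazine, standardized to uBRET; four-parameter logistic fit.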

human CB1 receptor [2] = biological target: T1, human CB1 receptor; experiment: bioSensAll β-arrestin plasma membrane translocation BRET biosensor (+GRK2) assay (antagonism of CP-55,940); assay type: cell-based; conditions: HEK293 cells transfected with hCB1 and β-arrestin PM translocation biosensor (+GRK2), EC75 of CP-55,940 (100 nM), overnight incubation, read-out: CB1 wt βarr2 IC50
Summary of the method: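 HEK293 cells co-transfected with hCB1 and β-arrestin plasma-membrane translocation BRET biosensor plus GRK2, tested ~48 h later in HBSS. Compounds (12 doses, 0–600 nM) added 3–5 min before CP-55,940 at EC75 of 100 nM. uBRET ratio (515/400 nm) fitted by four-parameter logistic regression.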

| IC50 (human CB1 receptor [1]) [nM] | IC50 (human CB1 receptor [2]) [nM] | Compound |
| --- | --- | --- |
| 9.09 | 40.4 | CC(C)(O)COc1cc(N2CCC[C@H](C(N)=O)C2)n2nc(-c3ccccc3Cl)c(-c3ccc(Cl)cc3)c2n1 [Compound 17(S), (3S)-1-[2-(2-chlorophenyl)-3-(4-chlorophenyl)-5-(2-hydroxy-2-methyl-propoxy)pyrazolo[1,5-a]pyrimidin-7-yl]piperidine-3-carboxamide] |
| 1.8 | 4.41 | OC[C@@H]1CCCN1c1cc(-c2ccc(C(F)(F)F)nc2)n2nc(-c3ccccc3Cl)c(-c3ccc(Cl)cc3)c2n1 [Compound 8, [(2S)-1-[2-(2-chlorophenyl)-3-(4-chlorophenyl)-7-[6-(trifluoromethyl)-3-pyridyl]pyrazolo[1,5-a]pyrimidin-5-yl]pyrrolidin-2-yl]methanol] |
| 1.33 | 3.33 | O[C@@H]1CCN(c2cc(-c3ccc(C(F)(F)F)nc3)n3nc(-c4ccccc4Cl)c(-c4ccc(Cl)cc4)c3n2)C1 [Compound 72(R)] |
| 158 | > 10000 | NC(=O)CC1CN(c2cc(N3CCC[C@H]3C(N)=O)nc3c(-c4ccc(Cl)cc4)c(-c4ccccc4Cl)nn23)C1 [Compound 35, (2S)-1-[7-[3-(2-amino-2-oxo-ethyl)azetidin-1-yl]-2-(2-chlorophenyl)-3-(4-chlorophenyl)pyrazolo[1,5-a]pyrimidin-5-yl]pyrrolidine-2-carboxamide] |
| 3910 | > 30000 | CCNC(=O)CN(C)c1cc(N2CC(OCC(N)=O)C2)n2nc(-c3ccccc3Cl)c(-c3ccc(Cl)cc3)c2n1 [Compound 69, 2-[[7-[3-(2-amino-2-oxo-ethoxy)azetidin-1-yl]-2-(2-chlorophenyl)-3-(4-chlorophenyl)pyrazolo[1,5-a]pyrimidin-5-yl]-methyl-amino]-N-ethyl-acetamide] |
| 9.13 | 25.4 | CC(C)(O)CNc1cc(N2CCC(C)(C(N)=O)CC2)n2nc(-c3ccccc3Cl)c(-c3ccc(Cl)cc3)c2n1 [Compound 49, 1-[2-(2-chlorophenyl)-3-(4-chlorophenyl)-5-[(2-hydroxy-2-methyl-propyl)amino]pyrazolo[1,5-a]pyrimidin-7-yl]-4-methyl-piperidine-4-carboxamide] |
| 14.6 | 94.6 | CN(CCC(N)=O)c1cc(N2CC(CC(N)=O)C2)n2nc(-c3ccccc3Cl)c(-c3ccc(Cl)cc3)c2n1 [Compound 24, 3-[[7-[3-(2-amino-2-oxo-ethyl)azetidin-1-yl]-2-(2-chlorophenyl)-3-(4-chlorophenyl)pyrazolo[1,5-a]pyrimidin-5-yl]-methyl-amino]propanamide] |
| 1.28 | 4.6 | CC1(C(N)=O)CCN(c2cc(N3CC[C@@H](O)C3)nc3c(-c4ccc(Cl)cc4)c(-c4ccccc4Cl)nn23)CC1 [Compound 21, 1-[2-(2-chlorophenyl)-3-(4-chlorophenyl)-5-[(3R)-3-hydroxypyrrolidin-1-yl]pyrazolo[1,5-a]pyrimidin-7-yl]-4-methyl-piperidine-4-carboxamide] |
| 3.69 | 8.6 | COc1ccc(-c2cc(N3CCC[C@H]3CO)nc3c(-c4ccc(Cl)cc4)c(-c4ccccc4Cl)nn23)cc1 [Compound 5, [(2S)-1-[2-(2-chlorophenyl)-3-(4-chlorophenyl)-7-(4-methoxyphenyl)pyrazolo-[1,5-a]pyrimidin-5-yl]pyrrolidin-2-yl]methanol] |
| 33.7 | 131 | CCNC(=O)CNc1cc(N2CCC(C)(C(N)=O)CC2)n2nc(-c3ccccc3Cl)c(-c3ccc(Cl)cc3)c2n1 [Compound 47, 1-[2-(2-chlorophenyl)-3-(4-chlorophenyl)-5-[[2-(ethylamino)-2-oxo-ethyl]amino]pyrazolo[1,5-a]pyrimidin-7-yl]-4-methyl-piperidine-4-carboxamide] |
| 584 | > 10000 | CN(C)C(=O)CN(C)c1cc(N2CC(CC(N)=O)C2)n2nc(-c3ccccc3Cl)c(-c3ccc(Cl)cc3)c2n1 [Compound 32, 2-[1-[2-(2-chlorophenyl)-3-(4-chlorophenyl)-5-[[2-(dimethylamino)-2-oxo-ethyl]-methyl-amino]pyrazolo[1,5-a]pyrimidin-7-yl]azetidin-3-yl]acetamide] |
| 1.26 | 3.51 | CC(C)(O)COc1cc(N2CCC(C)(C(N)=O)CC2)n2nc(-c3ccccc3Cl)c(-c3ccc(Cl)cc3)c2n1 [Compound 13, 1-[2-(2-chlorophenyl)-3-(4-chlorophenyl)-5-(2-hydroxy-2-methyl-propoxy)pyrazolo[1,5-a]pyrimidin-7-yl]-4-methyl-piperidine-4-carboxamide] |
| 1.02 | 2.43 | CC(C)(O)COc1cc(N2CCC(C)(C(N)=O)CC2)n2nc(-c3ccc(C#N)nc3)c(-c3ccc(Cl)cc3)c2n1 [Compound 54, 1-[3-(4-chlorophenyl)-2-(6-cyano-3-pyridyl)-5-(2-hydroxy-2-methyl-propoxy)pyrazolo[1,5-a]pyrimidin-7-yl]-4-methyl-piperidine-4-carboxamide] |
| 34.8 | 114 | CN(C)C(=O)CN(C)c1cc(N2CCC[C@@H](C(N)=O)C2)n2nc(-c3ccccc3Cl)c(-c3ccc(Cl)cc3)c2n1 [Compound 29, (3R)-1-[2-(2-chlorophenyl)-3-(4-chlorophenyl)-5-[[2-(dimethylamino)-2-oxo-ethyl]-methyl-amino]pyrazolo[1,5-a]pyrimidin-7-yl]piperidine-3-carboxamide] |
| 679 | 198 | CN(CP(C)(C)=O)c1cc(N2CC[C@H](CC(N)=O)C2)n2nc(-c3ccccc3Cl)c(-c3ccc(Cl)cc3)c2n1 [Compound 30, 2-[(3R)-1-[2-(2-chlorophenyl)-3-(4-chlorophenyl)-5-[dimethylphosphorylmethyl(methyl)amino]pyrazolo[1,5-a]pyrimidin-7-yl]pyrrolidin-3-yl]acetamide] |
| 1.28 | 5.27 | OC[C@@H]1CCCN1c1cc(N2CCC(C(F)(F)F)CC2)n2nc(-c3ccccc3Cl)c(-c3ccc(Cl)cc3)c2n1 [Compound 2, [(2S)-1-[2-(2-chlorophenyl)-3-(4-chlorophenyl)-7-[4-(trifluoromethyl)-1-piperidyl]pyrazolo[1,5-a]pyrimidin-5-yl]pyrrolidin-2-yl]methanol] |
| 1.2 | 4.31 | CCNC1(C(N)=O)CCN(c2cc(N3CCC[C@H]3CO)nc3c(-c4ccc(Cl)cc4)c(-c4ccccc4Cl)nn23)CC1 [Compound 1, 1-[2-(2-chlorophenyl)-3-(4-chlorophenyl)-5-[(2S)-2-(hydroxymethyl)pyrrolidin-1-yl]pyrazolo[1,5-a]pyrimidin-7-yl]-4-(ethylamino)piperidine-4-carboxamide] |
| 1.04 | 2.86 | CC(C)OC1(C(N)=O)CCN(c2cc(OCC(C)(C)O)nc3c(-c4ccc(Cl)cc4)c(-c4ccccc4Cl)nn23)CC1 [Compound 57, 1-[2-(2-chlorophenyl)-3-(4-chlorophenyl)-5-(2-hydroxy-2-methyl-propoxy)pyrazolo[1,5-a]pyrimidin-7-yl]-4-isopropoxy-piperidine-4-carboxamide] |
| 1.37 | 4.07 | C[C@@H](CO)Oc1cc(-c2ccc(C(F)(F)F)nc2)n2nc(-c3ccccc3Cl)c(-c3ccc(Cl)cc3)c2n1 [Compound 71(S)] |
| 6.21 | 21.8 | CC(C)(O)COc1cc(N2CC(C(N)=O)C2)n2nc(-c3ccc(C#N)nc3)c(-c3ccc(Cl)cc3)c2n1 [Compound 59, 1-[3-(4-chlorophenyl)-2-(6-cyano-3-pyridyl)-5-(2-hydroxy-2-methyl-propoxy)pyrazolo [1,5-a]pyrimidin-7-yl]azetidine-3-carboxamide] |
| 3.89 | 19.4 | CCNC(=O)CN(C)c1cc(N2CCC(OCC)(C(N)=O)CC2)n2nc(-c3ccccc3Cl)c(-c3ccc(Cl)cc3)c2n1 [Compound 48, 1-[2-(2-chlorophenyl)-3-(4-chlorophenyl)-5-[[2-(ethylamino)-2-oxo-ethyl]-methyl-amino]pyrazolo[1,5-a]pyrimidin-7-yl]-4-ethoxy-piperidine-4-carboxamide] |
| 0.97 | 2.75 | CCOC1(C(N)=O)CCN(c2cc(N(C)CCO)nc3c(-c4ccc(Cl)cc4)c(-c4ccccc4Cl)nn23)CC1 [Compound 43, 1-[2-(2-chlorophenyl)-3-(4-chlorophenyl)-5-[2-hydroxyethyl(methyl)amino]pyrazolo[1,5-a]pyrimidin-7-yl]-4-ethoxy-piperidine-4-carboxamide] |
| 17.3 | 112 | CN(CP(C)(C)=O)c1cc(N2CCC(C)(C(N)=O)CC2)n2nc(-c3ccccc3Cl)c(-c3ccc(Cl)cc3)c2n1 [Compound 40, 1-[2-(2-chlorophenyl)-3-(4-chlorophenyl)-5-[dimethylphosphorylmethyl (methyl)amino]pyrazolo[1,5-a]pyrimidin-7-yl]-4-methyl-piperidine-4-carboxamide] |
| 2.48 | 10.9 | CNC(=O)CCN(C)c1cc(N2CCC(C)(C(N)=O)CC2)n2nc(-c3ccccc3Cl)c(-c3ccc(Cl)cc3)c2n1 [Compound 38, 1-[2-(2-chlorophenyl)-3-(4-chlorophenyl)-5-[methyl-[3-(methylamino)-3-oxo-propyl]amino]pyrazolo[1,5-a]pyrimidin-7-yl]-4-methyl-piperidine-4-carboxamide] |
